Experimental data from patent US12227500B2, “Substituted pyrrolo[2,3-b]pyridines for suppressing toxic endoplasmic reticulum stress” (THE TRUSTEES OF COLUMBIA UNIVERSITY IN THE CITY OF NEW YORK, priority 2018, dated 2025).
Where two headings read alike, the source gives them in different places.

Experiments:
Experiment in all cases: Radiolabeled ATP kinase assay, panel of 60 kinases (Table S5)
Assay type in all cases: biochemical
[1] = target: T1, panel of 60 human kinases (Homo sapiens, UniProt Q8N4C8); settings: MINK/MINK1; 0.1 μM; 10 μM ATP; read-out: % Enzyme Activity (relative to DSMO controls)
T1 construct: purchased Reaction Biology Corp
T1 sequence (Q8N4C8 whole entry): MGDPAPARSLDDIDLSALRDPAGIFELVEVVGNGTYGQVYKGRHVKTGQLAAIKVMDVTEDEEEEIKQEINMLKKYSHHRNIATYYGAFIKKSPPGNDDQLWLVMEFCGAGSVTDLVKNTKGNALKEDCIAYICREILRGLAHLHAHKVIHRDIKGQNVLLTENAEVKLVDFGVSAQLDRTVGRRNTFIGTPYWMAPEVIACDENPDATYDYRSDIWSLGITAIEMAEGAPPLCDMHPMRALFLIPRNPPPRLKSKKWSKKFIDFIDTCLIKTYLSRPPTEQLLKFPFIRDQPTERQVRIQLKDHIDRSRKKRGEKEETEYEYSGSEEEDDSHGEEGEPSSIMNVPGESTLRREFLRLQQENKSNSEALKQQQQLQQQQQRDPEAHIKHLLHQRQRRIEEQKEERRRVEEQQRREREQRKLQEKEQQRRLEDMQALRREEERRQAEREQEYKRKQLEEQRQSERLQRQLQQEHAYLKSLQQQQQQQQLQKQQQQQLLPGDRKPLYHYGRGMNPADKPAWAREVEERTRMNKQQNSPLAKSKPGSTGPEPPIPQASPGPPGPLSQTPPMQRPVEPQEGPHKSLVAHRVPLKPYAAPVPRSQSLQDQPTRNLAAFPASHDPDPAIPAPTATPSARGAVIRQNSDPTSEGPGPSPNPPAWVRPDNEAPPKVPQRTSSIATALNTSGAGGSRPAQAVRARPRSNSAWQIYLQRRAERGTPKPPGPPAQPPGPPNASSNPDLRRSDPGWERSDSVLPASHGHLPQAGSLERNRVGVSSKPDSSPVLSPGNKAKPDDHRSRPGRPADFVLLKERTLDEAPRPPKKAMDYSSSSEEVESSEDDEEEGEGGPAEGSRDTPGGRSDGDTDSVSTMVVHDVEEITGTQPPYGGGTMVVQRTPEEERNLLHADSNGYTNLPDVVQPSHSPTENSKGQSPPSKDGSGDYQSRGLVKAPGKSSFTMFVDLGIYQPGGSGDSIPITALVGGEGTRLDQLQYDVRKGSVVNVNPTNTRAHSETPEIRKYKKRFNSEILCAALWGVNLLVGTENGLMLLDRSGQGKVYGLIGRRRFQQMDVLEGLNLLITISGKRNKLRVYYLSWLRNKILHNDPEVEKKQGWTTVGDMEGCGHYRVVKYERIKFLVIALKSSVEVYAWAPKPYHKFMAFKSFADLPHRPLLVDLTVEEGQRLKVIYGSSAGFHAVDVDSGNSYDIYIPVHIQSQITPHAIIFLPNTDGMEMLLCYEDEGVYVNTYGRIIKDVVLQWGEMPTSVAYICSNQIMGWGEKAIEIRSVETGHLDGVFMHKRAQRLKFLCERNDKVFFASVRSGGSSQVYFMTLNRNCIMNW
Protocol: (§1) To better understand the biologically relevant targets of compound 1 and its analogs, a second round of cell-free kinase assays was performed. In this expanded assay, we selected ten analogs ranging from moderately to very strongly protective in the CPA assay. These analogs were evaluated for their ability to inhibit a selection of 60 kinases at 0.1 μM and 0.5 μM. […] RNAseq data were used to confirm the expression of each kinase in ES MNs (see Example 12).
(§2) RNAseq data were used to confirm the expression of each kinase in ES motor neurons (see Example 12).

[2] = target: T2, panel of 60 human kinases (Homo sapiens, UniProt Q13470); settings: TNK1; 0.1 μM; 10 μM ATP; read-out: % Enzyme Activity (relative to DSMO controls)
T2 construct: purchased Reaction Biology Corp
T2 sequence (Q13470 1-666): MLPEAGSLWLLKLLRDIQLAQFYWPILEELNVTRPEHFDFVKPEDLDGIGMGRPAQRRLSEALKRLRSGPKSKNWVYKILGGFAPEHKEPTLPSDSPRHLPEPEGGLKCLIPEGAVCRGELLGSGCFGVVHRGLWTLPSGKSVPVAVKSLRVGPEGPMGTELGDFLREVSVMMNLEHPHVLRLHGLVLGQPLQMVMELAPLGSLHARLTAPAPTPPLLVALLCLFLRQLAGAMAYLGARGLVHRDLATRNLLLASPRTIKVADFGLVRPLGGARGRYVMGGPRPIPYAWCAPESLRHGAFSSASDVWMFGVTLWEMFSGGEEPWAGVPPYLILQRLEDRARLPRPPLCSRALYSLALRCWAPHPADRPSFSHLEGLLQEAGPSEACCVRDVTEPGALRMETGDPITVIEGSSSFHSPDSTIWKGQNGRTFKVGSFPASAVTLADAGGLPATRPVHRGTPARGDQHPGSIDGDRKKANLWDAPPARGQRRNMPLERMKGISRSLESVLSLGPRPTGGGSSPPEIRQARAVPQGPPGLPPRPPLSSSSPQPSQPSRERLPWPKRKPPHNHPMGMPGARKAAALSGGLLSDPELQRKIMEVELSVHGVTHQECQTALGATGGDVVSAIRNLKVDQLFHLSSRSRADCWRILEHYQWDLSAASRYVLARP
Protocol: as §1, §2

[3] = target: T3, panel of 60 human kinases (Homo sapiens, UniProt O94921); settings: CDK14/cyclin Y (PFTK1); 0.1 μM; 10 μM ATP; read-out: % Enzyme Activity (relative to DSMO controls)
T3 construct: purchased Reaction Biology Corp
T3 sequence (O94921 whole entry): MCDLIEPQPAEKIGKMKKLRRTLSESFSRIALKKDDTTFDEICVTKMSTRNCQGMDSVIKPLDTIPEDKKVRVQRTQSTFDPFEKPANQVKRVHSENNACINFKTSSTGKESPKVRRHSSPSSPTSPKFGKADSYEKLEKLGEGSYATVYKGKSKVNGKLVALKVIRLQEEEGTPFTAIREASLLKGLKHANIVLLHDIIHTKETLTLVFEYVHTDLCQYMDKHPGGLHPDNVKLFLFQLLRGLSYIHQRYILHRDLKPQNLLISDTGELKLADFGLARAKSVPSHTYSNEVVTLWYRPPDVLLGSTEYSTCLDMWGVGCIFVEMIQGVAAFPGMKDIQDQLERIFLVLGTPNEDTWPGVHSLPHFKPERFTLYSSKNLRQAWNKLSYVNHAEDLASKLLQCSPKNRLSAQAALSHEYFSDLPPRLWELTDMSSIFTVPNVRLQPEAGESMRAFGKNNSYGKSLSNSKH
Protocol: as §1, §2

[4] = target: T4, panel of 60 human kinases (Homo sapiens, UniProt P45983); settings: JNK1; 0.1 μM; 10 μM ATP; read-out: % Enzyme Activity (relative to DSMO controls)
T4 construct: purchased Reaction Biology Corp
T4 sequence (P45983 whole entry): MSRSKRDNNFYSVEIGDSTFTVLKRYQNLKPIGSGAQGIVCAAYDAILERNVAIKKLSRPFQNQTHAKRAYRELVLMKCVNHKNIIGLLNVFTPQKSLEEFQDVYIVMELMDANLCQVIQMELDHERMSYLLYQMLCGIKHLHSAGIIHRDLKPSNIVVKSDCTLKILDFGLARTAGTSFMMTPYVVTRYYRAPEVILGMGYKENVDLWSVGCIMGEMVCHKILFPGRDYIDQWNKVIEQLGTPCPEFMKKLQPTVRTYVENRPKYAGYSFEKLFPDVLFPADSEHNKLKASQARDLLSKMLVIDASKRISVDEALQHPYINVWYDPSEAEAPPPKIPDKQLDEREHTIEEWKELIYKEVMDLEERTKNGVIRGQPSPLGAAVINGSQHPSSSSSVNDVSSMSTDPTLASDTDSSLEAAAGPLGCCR
Protocol: as §1, §2

[5] = target: T5, panel of 60 human kinases (Homo sapiens, UniProt Q13164); settings: 0.1 μM, 10 μM ATP, read-out: % Enzyme Activity (relative to DSMO controls)
T5 construct: purchased Reaction Biology Corp
T5 sequence (Q13164 whole entry): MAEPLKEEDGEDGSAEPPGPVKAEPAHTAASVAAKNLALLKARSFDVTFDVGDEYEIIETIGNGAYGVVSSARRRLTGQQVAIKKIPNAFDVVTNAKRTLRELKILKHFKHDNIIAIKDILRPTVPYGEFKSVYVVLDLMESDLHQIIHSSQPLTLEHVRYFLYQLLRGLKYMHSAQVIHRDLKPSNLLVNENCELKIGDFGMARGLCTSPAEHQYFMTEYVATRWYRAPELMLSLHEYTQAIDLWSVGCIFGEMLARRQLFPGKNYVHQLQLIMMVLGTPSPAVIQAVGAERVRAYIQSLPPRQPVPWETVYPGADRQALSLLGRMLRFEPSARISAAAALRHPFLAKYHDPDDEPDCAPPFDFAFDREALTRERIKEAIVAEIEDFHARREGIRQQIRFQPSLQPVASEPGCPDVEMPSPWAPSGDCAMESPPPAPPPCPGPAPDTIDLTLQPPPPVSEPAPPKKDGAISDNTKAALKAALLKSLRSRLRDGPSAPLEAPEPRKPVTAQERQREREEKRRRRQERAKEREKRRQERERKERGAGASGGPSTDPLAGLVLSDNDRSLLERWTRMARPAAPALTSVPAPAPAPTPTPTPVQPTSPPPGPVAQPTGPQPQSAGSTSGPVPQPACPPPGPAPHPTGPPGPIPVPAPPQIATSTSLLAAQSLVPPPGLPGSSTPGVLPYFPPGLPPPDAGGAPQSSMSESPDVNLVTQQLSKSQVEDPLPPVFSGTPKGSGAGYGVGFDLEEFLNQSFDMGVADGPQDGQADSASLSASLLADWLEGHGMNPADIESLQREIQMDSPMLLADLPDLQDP
Protocol: as §1, §2

[6] = target: T6, panel of 60 human kinases (Homo sapiens, UniProt P49760); settings: CLK2; 0.1 μM; 10 μM ATP; read-out: % Enzyme Activity (relative to DSMO controls)
T6 construct: purchased Reaction Biology Corp
T6 sequence (P49760 whole entry): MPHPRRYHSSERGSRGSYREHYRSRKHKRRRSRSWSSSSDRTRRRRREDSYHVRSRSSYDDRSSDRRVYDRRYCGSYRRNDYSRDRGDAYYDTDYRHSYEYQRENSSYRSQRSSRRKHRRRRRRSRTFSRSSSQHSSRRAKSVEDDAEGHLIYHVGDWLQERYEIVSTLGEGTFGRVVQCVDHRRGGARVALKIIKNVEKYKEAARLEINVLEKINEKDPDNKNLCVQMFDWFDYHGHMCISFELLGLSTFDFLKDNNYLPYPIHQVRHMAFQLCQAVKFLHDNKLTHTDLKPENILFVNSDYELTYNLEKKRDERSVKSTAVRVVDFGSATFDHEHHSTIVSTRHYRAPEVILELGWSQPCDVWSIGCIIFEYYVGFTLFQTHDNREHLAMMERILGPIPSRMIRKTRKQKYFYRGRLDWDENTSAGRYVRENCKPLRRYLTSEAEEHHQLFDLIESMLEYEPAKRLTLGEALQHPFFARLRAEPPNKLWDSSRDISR
Protocol: as §1, §2

[7] = target: T7, panel of 60 human kinases (Homo sapiens, UniProt Q00535); settings: 0.1 μM, 10 μM ATP, read-out: % Enzyme Activity (relative to DSMO controls)
T7 construct: purchased Reaction Biology Corp
T7 sequence (Q00535 whole entry): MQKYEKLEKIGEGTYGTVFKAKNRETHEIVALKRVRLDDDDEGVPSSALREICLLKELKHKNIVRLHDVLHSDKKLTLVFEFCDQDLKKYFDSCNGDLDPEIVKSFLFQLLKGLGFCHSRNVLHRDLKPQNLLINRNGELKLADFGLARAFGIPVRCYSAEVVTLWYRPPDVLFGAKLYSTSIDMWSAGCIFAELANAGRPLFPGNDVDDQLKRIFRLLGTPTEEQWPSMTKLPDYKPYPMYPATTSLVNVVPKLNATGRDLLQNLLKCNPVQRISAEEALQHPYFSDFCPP
Protocol: as §1, §2

[8] = target: T8, panel of 60 human kinases (Homo sapiens, UniProt Q15139); settings: PKCmu/PRKD1; 0.1 μM; 10 μM ATP; read-out: % Enzyme Activity (relative to DSMO controls)
T8 construct: purchased Reaction Biology Corp
T8 sequence (Q15139 1-912): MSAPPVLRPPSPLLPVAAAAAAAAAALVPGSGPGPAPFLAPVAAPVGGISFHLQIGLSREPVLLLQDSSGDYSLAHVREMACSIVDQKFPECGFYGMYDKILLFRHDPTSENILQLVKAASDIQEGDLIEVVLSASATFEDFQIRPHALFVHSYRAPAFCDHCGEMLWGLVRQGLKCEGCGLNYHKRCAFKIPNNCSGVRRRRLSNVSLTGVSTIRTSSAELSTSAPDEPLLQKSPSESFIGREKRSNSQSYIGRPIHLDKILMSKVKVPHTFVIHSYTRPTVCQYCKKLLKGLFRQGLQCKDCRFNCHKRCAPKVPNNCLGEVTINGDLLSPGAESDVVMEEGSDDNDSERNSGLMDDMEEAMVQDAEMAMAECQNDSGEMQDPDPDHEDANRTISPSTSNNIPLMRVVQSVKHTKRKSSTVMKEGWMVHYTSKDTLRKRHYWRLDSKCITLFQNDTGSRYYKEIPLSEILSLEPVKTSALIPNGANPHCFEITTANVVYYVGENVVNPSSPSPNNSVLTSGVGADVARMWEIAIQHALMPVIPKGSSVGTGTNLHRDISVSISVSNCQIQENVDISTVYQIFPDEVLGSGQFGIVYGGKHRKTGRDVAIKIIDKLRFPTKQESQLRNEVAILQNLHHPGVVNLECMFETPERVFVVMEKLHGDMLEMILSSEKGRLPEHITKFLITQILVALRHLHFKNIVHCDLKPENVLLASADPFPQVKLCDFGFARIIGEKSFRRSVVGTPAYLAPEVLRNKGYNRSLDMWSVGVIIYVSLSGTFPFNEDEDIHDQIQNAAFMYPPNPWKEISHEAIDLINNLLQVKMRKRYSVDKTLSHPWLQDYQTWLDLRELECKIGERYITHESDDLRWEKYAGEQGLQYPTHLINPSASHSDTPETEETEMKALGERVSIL
Protocol: as §1, §2

[9] = target: T9, panel of 60 human kinases (Homo sapiens, UniProt Q13627); settings: DYRK/RK1A; 0.1 μM; 10 μM ATP; read-out: % Enzyme Activity (relative to DSMO controls)
T9 construct: purchased Reaction Biology Corp
Protocol: as §1, §2

[10] = target: T10, panel of 60 human kinases (Homo sapiens, UniProt P53779); settings: JNK3; 0.1 μM; 10 μM ATP; read-out: % Enzyme Activity (relative to DSMO controls)
T10 construct: purchased Reaction Biology Corp
T10 sequence (P53779 whole entry): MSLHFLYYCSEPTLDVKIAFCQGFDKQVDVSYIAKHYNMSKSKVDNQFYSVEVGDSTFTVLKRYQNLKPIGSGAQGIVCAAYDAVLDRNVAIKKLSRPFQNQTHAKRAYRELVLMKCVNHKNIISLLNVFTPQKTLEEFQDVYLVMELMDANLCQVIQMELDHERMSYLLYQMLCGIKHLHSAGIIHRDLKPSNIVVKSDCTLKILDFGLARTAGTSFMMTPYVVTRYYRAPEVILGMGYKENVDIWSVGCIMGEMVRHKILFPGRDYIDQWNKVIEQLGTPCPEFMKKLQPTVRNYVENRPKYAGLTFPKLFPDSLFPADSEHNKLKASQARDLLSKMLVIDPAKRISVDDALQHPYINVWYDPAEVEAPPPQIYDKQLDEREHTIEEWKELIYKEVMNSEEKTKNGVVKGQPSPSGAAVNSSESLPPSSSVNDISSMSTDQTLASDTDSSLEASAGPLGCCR
Protocol: as §1, §2

[11] = target: T11, panel of 60 human kinases (Homo sapiens, UniProt Q96GD4); settings: Aurora B; 0.1 μM; 10 μM ATP; read-out: % Enzyme Activity (relative to DSMO controls)
T11 construct: purchased Reaction Biology Corp
T11 sequence (Q96GD4 whole entry): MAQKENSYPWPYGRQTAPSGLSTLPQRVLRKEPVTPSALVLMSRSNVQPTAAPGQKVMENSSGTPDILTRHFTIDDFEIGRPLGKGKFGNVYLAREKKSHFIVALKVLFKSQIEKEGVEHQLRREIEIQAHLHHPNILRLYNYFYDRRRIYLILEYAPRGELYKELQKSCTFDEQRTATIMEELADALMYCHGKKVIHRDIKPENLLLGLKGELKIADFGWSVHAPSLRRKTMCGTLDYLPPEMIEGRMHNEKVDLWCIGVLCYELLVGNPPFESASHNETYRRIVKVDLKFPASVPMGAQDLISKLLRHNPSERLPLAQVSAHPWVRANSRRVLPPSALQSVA
Protocol: as §1, §2

SMILES | remaining activity at 0.1 µM [1] [%] | remaining activity at 0.1 µM [2] [%] | remaining activity at 0.1 µM [3] [%] | remaining activity at 0.1 µM [4] [%] | remaining activity at 0.1 µM ([5]; ERK5/MAPK7 (CD)) [%] | remaining activity at 0.1 µM ([5]; ERK5/MAPK7) [%] | remaining activity at 0.1 µM [6] [%] | remaining activity at 0.1 µM ([7]; CDK5/p25) [%] | remaining activity at 0.1 µM ([7]; CDK5/p35) [%] | remaining activity at 0.1 µM [8] [%] | remaining activity at 0.1 µM [9] [%] | remaining activity at 0.1 µM [10] [%] | remaining activity at 0.1 µM [11] [%]
COc1ccccc1-c1c[nH]c2ncc(-c3ccc(CN4CCN(C)CC4)cc3)cc12 [Compound 7at, 3-(2-Methoxyphenyl)-5-(4-((4-methylpiperazin-1-yl)methyl)phenyl)-1H-pyrrolo[2,3-b]pyridine] | 9.84 | 38.4 | 76.4 | 102 | 92.7 | 108 | 90.9 | 43.1 | 31.9 | 38.7 | 57.4 | 104 | 87.8
Cc1nn(C)c(C)c1-c1c[nH]c2ncc(-c3ccc(CN4CCN(C)CC4)cc3)cc12 [Compound 7ai, 5-(4-((4-Methylpiperazin-1-yl)methyl)phenyl)-3-(1,3,5-trimethyl-1H-pyrazol-4-yl)-1H-pyrrolo[2,3-b]pyridine] | 7.8 | 63.6 | 83.9 | 77.7 | 86 | 101 | 52.5 | 93.2 | 87.9 | 14.2 | 41.7 | 107 | 99
CN1CCN(Cc2ccc(-c3cnc4[nH]cc(-c5ccncc5)c4c3)cc2)CC1 [Compound 7n, 5-(4-((4-Methylpiperazin-1-yl)methyl)phenyl)-3-(pyridin-4-yl)-1H-pyrrolo[2,3-b]pyridine] | 38.8 | 87.8 | 35 | 85.5 | 98.9 | 90.6 | 23.6 | 69.2 | 57.5 | 31.5 | 40.3 | 115 | 86.9
CN1CCN(Cc2ccc(-c3cnc4[nH]cc(-c5cnn(Cc6ccccc6)c5)c4c3)cc2)CC1 [Compound 7ah, 3-(1-Benzyl-1H-pyrazol-4-yl)-5-(4-((4-methylpiperazin-1-yl)methyl)phenyl)-1H-pyrrolo[2,3-b]pyridine] | 5.06 | 37.8 | 30.1 | 18.6 | 52.1 | 105 | 4.24 | 52 | 46.3 | 4.39 | 4.52 | 81.8 | 69.9
CN1CCN(Cc2ccc(-c3cnc4[nH]cc(-c5ccoc5)c4c3)cc2)CC1 [Compound 7w, 3-(Furan-3-yl)-5-(4-((4-methylpiperazin-1-yl)methyl)phenyl)-1H-pyrrolo[2,3-b]pyridine] | 3.72 | 73.2 | 83.8 | 76.8 | 96.3 | 108 | 59.2 | 89.4 | 82.2 | 20.4 | 71.2 | 113 | 89.9
CN1CCN(Cc2ccc(-c3cnc4[nH]cc(-c5cccc(Cl)c5)c4c3)cc2)CC1 [Compound 7ad, 3-(3-Chlorophenyl)-5-(4-((4-methylpiperazin-1-yl)methyl)phenyl)-1H-pyrrolo[2,3-b]pyridine] | 3.06 | 53.5 | 92.5 | 88.7 | 93.9 | 109 | 79.8 | 84.4 | 83.9 | 9.7 | 53.4 | 106 | 91.8
CN1CCN(Cc2ccc(-c3cnc4[nH]cc(-c5ccc6[nH]ccc6c5)c4c3)cc2)CC1 [Compound 1, 3-(1H-Indol-5-yl)-5-(4-((4-methylpiperazin-1-yl)methyl)phenyl)-1H-pyrrolo[2,3-b]pyridine, reference compound] | 5.53 | 28.8 | 88.2 | 75.3 | 87.5 | 109 | 22.8 | 52.8 | 52.3 | 11.4 | 41 | 122 | 88.8
